From ChEMBL document CHEMBL1201862, “PubChem BioAssay data set” (2004)
Calls of active or inactive are those of the source. Rule as the data show it: actives have a measured IC50 and inactives only a lower limit.

Molecular target: Envelope glycoprotein gp160 (Human immunodeficiency virus 1, UniProt Q6QLK5)
Experiment: cell-free HIV fusion peptide-binding blockers – biochemical, uHTS, fluorescence dequenching, […] (AID 1986)

Chain of Envelope glycoprotein gp160 (Q6QLK5 whole entry, the tested form may be a part): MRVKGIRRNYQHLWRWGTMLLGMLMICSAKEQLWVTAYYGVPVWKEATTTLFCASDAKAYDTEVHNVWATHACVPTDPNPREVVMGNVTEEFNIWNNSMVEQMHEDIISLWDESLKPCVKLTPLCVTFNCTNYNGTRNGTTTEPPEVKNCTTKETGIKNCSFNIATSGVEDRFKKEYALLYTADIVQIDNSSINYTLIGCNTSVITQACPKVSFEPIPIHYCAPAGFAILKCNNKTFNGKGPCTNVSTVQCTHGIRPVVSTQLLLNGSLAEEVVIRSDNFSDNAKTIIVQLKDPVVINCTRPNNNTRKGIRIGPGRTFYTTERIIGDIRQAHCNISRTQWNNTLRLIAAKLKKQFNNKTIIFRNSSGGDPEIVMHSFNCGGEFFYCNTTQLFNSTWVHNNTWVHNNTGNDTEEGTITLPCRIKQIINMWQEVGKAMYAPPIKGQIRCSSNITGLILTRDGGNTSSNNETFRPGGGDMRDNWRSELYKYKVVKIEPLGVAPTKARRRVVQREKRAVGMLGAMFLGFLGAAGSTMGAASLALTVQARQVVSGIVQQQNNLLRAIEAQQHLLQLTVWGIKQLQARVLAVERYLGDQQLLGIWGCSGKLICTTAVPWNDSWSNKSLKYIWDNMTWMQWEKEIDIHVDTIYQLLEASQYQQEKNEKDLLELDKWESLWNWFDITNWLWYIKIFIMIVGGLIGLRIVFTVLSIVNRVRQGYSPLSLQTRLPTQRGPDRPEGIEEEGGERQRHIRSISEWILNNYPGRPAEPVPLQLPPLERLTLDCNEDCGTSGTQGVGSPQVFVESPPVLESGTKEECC

## COc1ccc(S(=O)(=O)Nc2ccccc2C(=O)Nc2nc(-c3ccc(F)cc3)cs2)cc1OC
  IC50: 14.8 µM (active)
